PubChem BioAssay (NCI)
Values joined by “and” are separate entries in the source; they are usually repeats but may differ in a detail not shown here. Equal values may be shown once.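 All cell lines were grown in 96-well plates and treated with compound for 48 hours. GI50 marks 50% less growth. Definition used: TGI = concentration required for complete inhibition of growth.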

Experiments:
Assay in all cases: NCI tumour cell line growth inhibition, 48 h
HCC-2998 colon = test system: HCC-2998 colon
HOP-62 NSCLC = test system: HOP-62 NSCLC
HOP-92 NSCLC = test system: HOP-92 NSCLC
KM12 colon = test system: KM12 colon
NCI-H226 lung = test system: NCI-H226 lung
OVCAR-8 ovarian = test system: OVCAR-8 ovarian
SF-295 CNS = test system: SF-295 CNS
SW-620 colon = test system: SW-620 colon
UACC-62 melanoma = test system: UACC-62 melanoma
MDA-MB-231 breast = test system: MDA-MB-231 breast

Row | Structure (SMILES) | GI50 (HCC-2998 colon) [µM] | TGI (HCC-2998 colon) | GI50 (HOP-62 NSCLC) [µM] | TGI (HOP-62 NSCLC) | TGI (HOP-92 NSCLC) [µM] | GI50 (KM12 colon) [µM] | TGI (KM12 colon) | TGI (NCI-H226 lung) [µM] | GI50 (OVCAR-8 ovarian) [µM] | TGI (OVCAR-8 ovarian) | TGI (SF-295 CNS) | GI50 (SW-620 colon) [µM] | TGI (SW-620 colon) | GI50 (UACC-62 melanoma) [µM] | TGI (UACC-62 melanoma) | GI50 (HOP-92 NSCLC) [µM] | GI50 (MDA-MB-231 breast) [µM] | TGI (MDA-MB-231 breast) [µM] | GI50 (NCI-H226 lung) [µM] | GI50 (SF-295 CNS) [µM]
1 | CC(=O)OCC1OC(OC2CC3C(C)(C)C(O)CC[C@]3(C)C3CCC45CC4(CC[C@H]5C(C)CC(O)C4OC4(C)C)[C@]23C)C(O)C(O)C1O (some centres undefined) | 8.26 | 13.8 µM and 21.3 µM | 14.2 | 19.1 µM and 29.5 µM | 14.6 | 4.66 | 15.6 µM and 17.3 µM | 16.1 | 8.97 | 14.4 µM and 23.8 µM | 15.1 µM and 19.5 µM | 4.74 | 16.5 µM and 16.9 µM | 4.99 | 14.2 µM and 17.3 µM |  |  |  |  | 
2 | O=C(C(=O)N1CC2C=CC1CC2)c1c[nH]c2ccccc12 (centres undefined) |  | > 100 µM |  | > 100 µM | > 100 |  | > 100 µM | > 100 |  | > 100 µM | > 100 µM |  | > 100 µM |  | > 100 µM |  |  |  |  | 
3 | Cc1ccc(-c2cc(C3=CC(=O)C=CC3=O)n(-c3ccc(S(N)(=O)=O)cc3)n2)cc1 |  |  | 69.7 | > 100 µM | > 100 | 24 | > 100 µM | > 100 | 88.7 | > 100 µM | > 100 µM | 44.5 | > 100 µM | 39.5 | > 100 µM | 35.6 | 20.6 | 72.8 | 54 | > 100
4 | O=C(O)c1cc2cc(OCc3ccccc3)c(OCc3ccccc3)cc2[nH]1 | 18.7 | 34.7 µM | 16.4 | 52.4 µM |  | 19.3 | 36.2 µM | 35.7 | 26.9 | 95.9 µM | 40.1 µM | 21.8 | 53.8 µM | 17.5 | 34.5 µM |  | 28.2 | 79 | 17.1 | 17.6
5 | C1OC1CO[C@@H]1CO[C@H]2[C@@H]1OC[C@H]2OCC1CO1 (some centres undefined) |  | > 100 µM |  | > 100 µM | > 100 |  | > 100 µM | > 100 |  | > 100 µM | > 100 µM |  | > 100 µM |  | > 100 µM |  |  |  |  | 
6 | O=C1c2c(n(Cc3ccccc3)c(=O)n2Cc2ccccc2)C(=O)N1Cc1ccccc1 |  | > 100 µM |  | > 100 µM | > 100 |  | > 100 µM | > 100 |  | > 100 µM | > 100 µM |  | > 100 µM |  | > 100 µM |  |  |  |  | 
7 | CCN(CCCl)CCCNc1c2ccccc2nc2ccc(OC)cc12 | 436 |  | 200 |  |  | 268 |  |  |  | 1.63 µM |  |  | 1.39 µM | 255 |  | 180 |  |  | 580 | 308
8 | c1ccc2c(c1)[nH]c1cnc3c4cccnc4[nH]c3c12 |  | 34.5 µM |  | 96.1 µM | 60.7 |  |  | 64 |  | 32 µM | 49.8 µM |  | 32.3 µM |  | 31.1 µM |  |  |  |  | 
9 | COc1ccc(-c2ccc(-c3ccc(-c4ccc(C(=N)N)cc4)s3)s2)cc1OC |  |  | 3.26 | 17.9 µM | 6.1 | 0.749 | 2.16 µM | 58.4 | 3.76 | > 100 µM | 45.5 µM | 0.882 | 4.2 µM | 18.4 | 48 µM | 2.18 |  |  | 18.5 | 21.2
10 | CC#CC1/C(=C\C(=O)OC)CCCC1O (centres undefined) |  | > 100 µM |  | > 100 µM |  |  | > 100 µM | > 100 |  | > 100 µM | > 100 µM |  | > 100 µM |  | > 100 µM |  |  |  |  | 
11 | CN(C)C(=O)c1cc2cnc(Nc3ccc(-c4csc5c(=O)cc(N6CCOCC6)oc45)cc3)nc2n1C1CCCC1 | 0.219 | 1.2 µM | 0.269 | 1.67 µM | 41.9 | 0.0414 | 0.682 µM | 2.04 | 0.268 | > 30.5 µM | 1.14 µM | 0.153 | 1 µM | 0.129 | 0.367 µM | 0.0541 |  |  | 0.229 | 0.242
12 | CCCCOC(=O)NC(=O)c1cn(CCSCCOC(=O)NCCCCCCNC(=O)OCCSCCn2cc(C(=O)NC(=O)OCCCC)c(=O)[nH]c2=O)c(=O)[nH]c1=O |  | > 100 µM |  | > 100 µM | 71.8 |  | > 100 µM |  |  |  | > 100 µM |  |  |  | > 100 µM |  |  |  |  | 
13 | COC(=O)[C@]12CC[C@@H](C)[C@H](C)[C@@H]1C1=CC[C@@H]3[C@@]4(C)C=C(O)C(=O)[C@@]5(C)COC(=C54)C[C@@]3(C)[C@]1(C)CC2 | 11.5 | 26.7 µM | 15.4 | 35 µM | 28.9 | 11.9 | 29.4 µM | 41.3 | 12.9 | 47 µM | 28.7 µM | 11.3 | 26.3 µM |  |  | 14 | 11.9 | 29.7 | 15.1 | 13
14 | CCOC(=O)C1SC(=Nc2ccc(Cl)c(Cl)c2)N=C1C (centres undefined) |  | > 100 µM |  | > 100 µM |  |  | > 100 µM | 67.7 |  | > 100 µM | > 100 µM |  | > 100 µM |  | > 100 µM |  |  |  |  | 
15 | CC(=O)CCCCO |  |  |  | > 100 µM | > 100 |  | > 100 µM |  |  | > 100 µM | > 100 µM |  | > 100 µM |  | > 100 µM |  |  |  |  | 
16 | COc1ccc2nc3cc(Cl)ccc3c(NCCCNCCC(C)O)c2c1 (centres undefined) |  |  | 0.389 | 2.35 µM | 2.76 | 0.408 | 1.98 µM | 3.11 | 0.426 | 2.54 µM | 1.63 µM | 0.234 | 2.25 µM |  |  | 0.535 | 0.203 | 1.37 | 0.943 | 0.276
17 | CCOC(=O)C(=Cc1ccc(C(=O)OC)cc1)C(=O)OCC |  | 12.1 µM |  | 4.43 µM | 4.02 |  | 8.15 µM | 4.45 |  | 10.3 µM | 19.2 µM |  | 6.11 µM |  | 5.47 µM |  |  |  |  | 
18 | CN1CC(C(=O)C2C(=O)c3ccccc3C2=O)C(=O)C(=O)C(C(=O)C2C(=O)c3ccccc3C2=O)C1 (centres undefined) |  | > 100 µM |  | > 10 µM | > 100 |  | > 100 µM |  |  | > 100 µM | > 100 µM |  | > 100 µM |  | > 100 µM |  |  |  |  | 
